In patent publication US20240366775A1, “HUMAN TRANSFERRIN RECEPTOR BINDING ANTIBODY-PEPTIDE CONJUGATE” (PEPTIDREAM INC., priority 2021, published 2024):

Key:
[1] = molecular target: human transferrin receptor (hTfR) (Homo sapiens, UniProt P02786); test: SPR measurement of peptide binding to hTfR; conditions: naked peptide (1st to 15th amino acids, without linker part) corresponding to the listed linker-attached peptide; read-out: SPR of naked peptide (KD for binding to hTfR)
Description: Note that ND indicates No Data (here, it means that no data was obtained).

[2] = molecular target: T1, PD-L1 (Homo sapiens, UniProt Q9NZQ7); test: ELISA bindability of atezolizumab-peptide conjugate to PD-L1; type: binding; conditions: sample at 100 nM, average absorbance of two measurements
T1 construct: purchased R&D SYSTEMS 9049-B7
T1 sequence (Q9NZQ7 19-290): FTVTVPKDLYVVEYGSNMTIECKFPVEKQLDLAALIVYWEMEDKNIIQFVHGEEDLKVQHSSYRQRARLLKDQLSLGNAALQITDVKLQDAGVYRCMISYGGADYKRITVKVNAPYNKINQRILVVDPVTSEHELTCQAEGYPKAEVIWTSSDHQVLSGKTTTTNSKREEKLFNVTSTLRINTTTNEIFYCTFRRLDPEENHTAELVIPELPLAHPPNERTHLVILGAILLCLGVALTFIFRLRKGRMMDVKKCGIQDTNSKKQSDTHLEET
Procedure: The bindability of atezolizumab-peptide conjugates to the antigen PD-L1 was measured by ELISA.
100 μg of PD-L1 (R&D SYSTEMS, Cat. No. 9049-B7) was dissolved in PBS (Nacalai Tesque, Inc., Cat. No. 27575-31) to a final concentration of 1 g/L. To the dissolved PD-L1, 5 equivalents of 10 mM NHS-PEG4-Biotin (Thermo Scientific, Cat. No. A39259) was added and incubated at 4° C. overnight to biotinylate PD-L1. To a column packed with 1 mL of Bio-Gel P-6 (Bio-Rad, Cat. No. 1504130), swollen with a solution of polyoxyethylene sorbitan monolaurate (Nacalai Tesque, Inc., Cat. No. 28353-85) added to PBS to a final concentration of 0.1% (PBST), 100 μL of the above solution was added per one column to remove unreacted NHS-PEG4-Biotin.
Random biotinylated PD-L1 was added to IMMOBILIZER STREPTAVIDIN F96 clear (NUNC, Cat. No. 436014) at 1 μmol per one well and incubated at 4° C. overnight to perform solidification. The plate was washed with 900 μL of PBST in a plate washer (TECAN, HydroSpeed). 300 μL of 1% Block Ace (KAC Co., Ltd., Cat. No. UK-B80) was added per one well and incubated at room temperature for 90 minutes to perform blocking treatment. The plate was washed with 900 μL of PBST in the plate washer. […] The absorbance at 450 nm was measured in a plate reader (Enspir (trademark), Perkin Elmer).

[3] = ELISA no-target control wells (non-specific binding of antibodies and antibody-peptide conjugates); conditions: sample at 100 nM, no target immobilized
Procedure: Random biotinylated PD-1 was added to IMMOBILIZER STREPTAVIDIN F96 clear (NUNC, Cat. No. 436014) at 1 μmol per one well and incubated at 4° C. overnight to perform solidification. The plate was washed with 900 μL of PBST in a plate washer (TECAN, HydroSpeed). 300 μL of 1% Block Ace (KAC Co., Ltd., Cat. No. UK-B80) was added per one well and incubated at room temperature for 90 minutes to perform blocking treatment. The plate was washed with 900 μL of PBST in the plate washer. […] The plate was washed with 900 μL of PBST in the plate washer. 50 μL of Goat Anti-Human IgG H&L (HRP) (Abcam, Cat. No. ab97165) diluted 50,000 times with PBST-0.1% Block Ace solution was added and incubated at room temperature for 45 min. The plate was washed with 900 μL of PBST in the plate washer. 50 μL of TMB Solution (Sara care, Cat. No. 5150-0077) at room temperature was added and color development was performed at room temperature for 10 min in dark place, then 50 μL of TMB Stop Solution (Sara care, Cat. No. 5150-0021) was added to stop the color development. The absorbance at 450 nm was measured in a plate reader (Enspir (trademark), Perkin Elmer).
(§1) Random biotinylated TfR was added to IMMOBILIZER STREPTAVIDIN F96 clear (NUNC, Cat. No. 436014) at 1 μmol per one well and incubated at 4° C. overnight to perform solidification. The plate was washed with 900 μL of PBST in a plate washer (TECAN, HydroSpeed). 300 μL of 1% Block Ace (KAC Co., Ltd., Cat. No. UK-B80) was added per one well and incubated at room temperature for 90 minutes to perform blocking treatment. The plate was washed with 900 μL of PBST in the plate washer. 50 μL of various antibody-peptide conjugate and antibody whose peptide is not modified diluted to a final concentration of 100 nM by 50 mM HEPES pH 7.8-0.1% Block Ace were added and incubated at room temperature for 60 min. The plate was washed with 900 μL of PBST in the plate washer. 50 μL of Goat Anti-Human IgG H&L (HRP) (Abcam, Cat. No. ab97165) diluted 50,000 times with PBST-0.1% Block Ace solution was added and incubated at room temperature for 45 min. The plate was washed with 900 μL of PBST in the plate washer. 50 μL of TMB Solution (Sara care, Cat. No. 5150-0077) at room temperature was added and color development was performed at room temperature for 10 min in dark place, then 50 μL of TMB Stop Solution (Sara care, Cat. No. 5150-0021) was added to stop the color development. The absorbance at 450 nm was measured in a plate reader (Enspir (trademark), Perkin Elmer).

[4] = molecular target: T2, human TfR (Homo sapiens, UniProt P02786); test: ELISA bindability of various antibody-peptide conjugates to TfR; type: binding; conditions: sample at 100 nM, average absorbance of two measurements
T2 construct: made in house
T2 sequence (P02786 whole entry): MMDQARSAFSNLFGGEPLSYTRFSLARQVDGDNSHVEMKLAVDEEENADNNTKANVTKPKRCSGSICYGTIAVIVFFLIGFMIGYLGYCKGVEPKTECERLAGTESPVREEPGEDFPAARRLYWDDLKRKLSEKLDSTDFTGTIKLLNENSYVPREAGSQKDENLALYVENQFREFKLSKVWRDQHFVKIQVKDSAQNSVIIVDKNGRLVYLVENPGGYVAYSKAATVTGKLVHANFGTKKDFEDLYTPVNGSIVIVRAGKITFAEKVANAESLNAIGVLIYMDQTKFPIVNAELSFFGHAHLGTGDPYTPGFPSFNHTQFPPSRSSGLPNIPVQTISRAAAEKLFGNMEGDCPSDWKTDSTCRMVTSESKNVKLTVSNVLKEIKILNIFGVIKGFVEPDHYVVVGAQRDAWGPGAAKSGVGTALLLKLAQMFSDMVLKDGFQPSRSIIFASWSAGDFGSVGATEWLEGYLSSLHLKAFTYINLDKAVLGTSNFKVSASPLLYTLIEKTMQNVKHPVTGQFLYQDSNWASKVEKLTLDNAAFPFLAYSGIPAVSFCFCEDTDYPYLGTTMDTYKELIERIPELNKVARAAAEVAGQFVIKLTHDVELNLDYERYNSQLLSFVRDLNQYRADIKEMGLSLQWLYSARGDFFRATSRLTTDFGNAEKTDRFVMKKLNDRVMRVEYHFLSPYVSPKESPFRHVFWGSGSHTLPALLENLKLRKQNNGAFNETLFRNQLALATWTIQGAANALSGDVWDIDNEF
Procedure: as §1

[5] = Test substance concentration in tissue (brain migration), hTfR-KI mouse; type: in vivo, hTfR-KI mice; conditions: Example 7-2, tail vein 5 mg/kg, 6 and 24 hours, heart, lung, liver, spleen, kidney, quadriceps muscle, FIG. 2-4
Procedure: Blood was drawn from the tail vein after 1 and 3 hours from administration (2 mice/time point). After 6 and 24 hours from administration, mice were anesthetized with isoflurane, blood was drawn from the right ventricle, and then perfused with saline from the left ventricle for 4 to 5 min for blood removing treatment. Blood was collected using an EDTA-2K-treated needle and syringe, and the collected blood was kept on ice until it was separated into plasma. After blood removing treatment, brains were harvested and divided into left and right portions, and the left brain was embedded in a freeze-embedding agent (OCT compound, Sakura Finetek Co., Ltd.) for immunostaining and a frozen block was prepared. The right brain, heart, lung, liver, spleen, kidney, and quadriceps muscle were collected for measurement of test substance concentrations in tissues, weighed, flash-frozen in liquid nitrogen, and stored at −70° C. or less. […]
To Strept Avidin plate (Meso Scale Diagnostics, LLC), 150 μL/well of Blocker Casein in PBS (Thermo Fisher Scientific, Inc.) was added and shaken (26° C., 500 rpm) for 60 min in a plate shaker (Biosan) to perform blocking treatment. […] The concentration of each test substance in the samples were calculated by adding 150 μL/well of 2×Read Buffer T to each Strept Avidin plate and measuring with a plate reader (Sector S600, Meso Scale Diagnostics, LLC).

[6] = Test substance concentration in plasma, hTfR-KI mouse; type: in vivo, hTfR-KI mice; conditions: Example 7-2, tail vein 5 mg/kg, 1, 3, 6 and 24 hours, FIG. 2-3
Procedure: Blood was drawn from the tail vein after 1 and 3 hours from administration (2 mice/time point). After 6 and 24 hours from administration, mice were anesthetized with isoflurane, blood was drawn from the right ventricle, and then perfused with saline from the left ventricle for 4 to 5 min for blood removing treatment. Blood was collected using an EDTA-2K-treated needle and syringe, and the collected blood was kept on ice until it was separated into plasma.
To Strept Avidin plate (Meso Scale Diagnostics, LLC), 150 μL/well of Blocker Casein in PBS (Thermo Fisher Scientific, Inc.) was added and shaken (26° C., 500 rpm) for 60 min in a plate shaker (Biosan) to perform blocking treatment. The Blocker Casein in PBS was removed from the Strept Avidin plates, and 200 μL/well of PBST was added to each plate and washed. 25 μL/well of Capture antibody solution was added to each Strept Avidin plate, and the plates were shaken (26° C., 500 rpm) for 60 min in a plate shaker. Capture antibody solution was removed and PBST was added 200 μL/well and washed. This washing operation was performed three times. […] The concentration of each test substance in the samples were calculated by adding 150 μL/well of 2×Read Buffer T to each Strept Avidin plate and measuring with a plate reader (Sector S600, Meso Scale Diagnostics, LLC).

Sequence of human transferrin receptor (hTfR) (P02786 whole entry): as above

CC[C@H](C)[C@@H]1NC(=O)[C@H](Cc2ccc(O)cc2)NC(=O)[C@H](Cc2ccc(O)cc2)NC(=O)[C@H](CC(N)=O)NC(=O)[C@H](Cc2c[nH]c3ccccc23)NC(=O)[C@H](C(C)C)NC(=O)[C@H](Cc2ccccc2)NC(=O)[C@H](C(C)C)NC(=O)[C@H](C)NC(=O)CSC[C@@H](C(=O)NCCOCCOCCOCCOCCOCCOCCOCCOCCOCCOCCOCCOCCC(=O)N[C@@H](CCCCNC(=O)C2CCC(CN3C(=O)C=CC3=O)CC2)C(N)=O)NC(=O)[C@H](Cc2ccc(O)cc2)N(C)C(=O)[C@H](Cc2ccc(O)cc2)NC(=O)[C@H](CCCNC(=N)N)NC(=O)[C@H](CCCNC(=N)N)NC(=O)[C@H]([C@@H](C)CC)NC1=O (stereo partly drawn) [hTfR_000894_PEG11_K (Maleimide)]
Kd [1]: < 1 nM

atezolizumab
Abs450 nm at 100 nM, Target PD-L1 [2]: 2.237
Abs450 nm at 100 nM, No-target [3]: 0.043
Abs450 nm at 100 nM, Target hTfR [4]: 0.0465

ipilimumab
Abs450 nm at 100 nM, No-target [3]: 0.044

nivolumab [Nivolumab (control)]
detection in tissues [5]: detected in all tissues
concentration in plasma, time course [6]: detected in plasma at all time points evaluated and showed biphasic changes in plasma concentrations

pembrolizumab
Abs450 nm at 100 nM, No-target [3]: 0.0415

pertuzumab
Abs450 nm at 100 nM, No-target [3]: 0.0455
